{"source": "patent US9365522B2", "about": "“Pyrazole amide derivative” (AMGEN INC., priority 2015, dated 2016)", "molecular_target": "T1, ligand binding domain of human ROR gamma (Homo sapiens, UniProt P51449)", "T1 construct": "NM_001001523; expressed in transfected cells; host or cells: HEK293T", "T1 sequence (P51449 247-497 isoform P51449-2)": "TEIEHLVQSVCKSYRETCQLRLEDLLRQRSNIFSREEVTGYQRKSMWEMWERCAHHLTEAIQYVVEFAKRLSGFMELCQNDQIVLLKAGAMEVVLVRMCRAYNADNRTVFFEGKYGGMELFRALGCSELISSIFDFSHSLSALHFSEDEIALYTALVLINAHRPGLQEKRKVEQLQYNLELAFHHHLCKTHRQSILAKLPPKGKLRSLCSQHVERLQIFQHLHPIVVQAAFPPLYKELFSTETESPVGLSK", "assay": "ROR gamma reporter gene assay (GAL4-RORγ LBD luciferase, Dual-Glo)", "assay_type": "cell-based", "settings": "HEK293T cells transfected with pM-ROR gamma, 8 concentrations 3.5 nM to 10.5 μM, 24 h incubation; read-out: result (pIC50, inhibition of RORγ transcriptional activity) (converted)", "procedure": "Luciferase reporter gene assay was used to assess inhibition of RORγ transcriptional activity.\nROR gamma expression vector was prepared by inserting the ligand binding domain of human ROR gamma (amino acid 247-497 of Genbank Accession NO. NM_001001523) adjacent to the yeast GAL4 transcription factor DNA binding domain in the expression vector pM (Clontech). The resulting expression vector pM-ROR gamma was used in transfection experiments together with the pGL4 luciferase reporter plasmid (Promega) containing five copies of the UAS GAL4 recognition site and pRL-CMV plasmids (Promega) containing the constitutive CMV promoter and the renilla luciferase.\nFor preparing transfection reagent/DNA mixture, 1 μg pM-ROR gamma, 1 μg pGL4 5×UAS, 625 pg pRL-CMV and 6.25 μL FuGENE™ HD transfection reagent (Promega) were mixed in 0.25 mL OPTI-MEM™ (Life technologies) at room temperature. At the same time, Negative control DNA mixture was prepared by using 1 μg pM empty vector instead of pM-ROR gamma plasmid. After a fifteen minute incubation, 0.25 mL of transfection reagent/DNA mixture was added to 1,000,000 of HEK293T cells (ATCC) in 5 mL of OPTI-MEM™ containing 10% Charcoal Stripped Fetal Bovine Serum.\nTransfected cells were seeded onto 384 well plate (10 μL/well) and the 7.5 nL of test compounds were added to the wells in 8 concentrations ranging from 3.5 nM to 10.5 μM. The compounds were dissolved in 100% DMSO and the final concentration of DMSO in the assay was 0.075%.\nAfter 24 h of incubation at 37° C., 5% CO2 in a cell culture incubator, the Dual-Glo™ Luciferase Assay System was used to detect activity according to the manufacturer's instructions (Promega, Cat. No.: E2920).\nData was plotted and pIC50 values were calculated using the XLfit program (ID Business Solutions Ltd.).", "data": [{"compound": "CC(C)(F)CN(CC(=O)c1c(Cl)cncc1Cl)C(=O)c1cnn([C@H]2CC[C@H](C(=O)O)CC2)c1C(F)(F)F", "note": "[Example 73, trans-4-(4-((2-(3,5-dichloropyridin-4-yl)-2-oxoethyl)(2-fluoro-2-methylpropyl)carbamoyl)-5-(trifluoromethyl)-1H-pyrazol-1-yl)cyclohexanecarboxylic acid]", "values": [{"measurement": "IC50", "value": 646000, "unit": "pM"}]}, {"compound": "O=C(CN(C(=O)c1cnn([C@H]2CC[C@H](C(=O)O)CC2)c1C(F)(F)F)C1CC2CCC1C2)c1c(Cl)cncc1Cl", "note": "(stereo partly drawn) [Example 215, trans-4-(4-(3-bicyclo[2.2.1]heptanyl-(2-(3,5-dichloropyridin-4-yl)-2-oxoethyl)carbamoyl)-5-(trifluoromethyl)pyrazol-1-yl)cyclohexane-1-carboxylic acid]", "values": [{"measurement": "IC50", "value": 32400, "unit": "pM"}]}, {"compound": "CC1(C)C(CN(CC(=O)c2c(Cl)cncc2Cl)C(=O)c2cnn([C@H]3CC[C@](C)(C(=O)O)CC3)c2C(F)(F)F)C1(C)C", "note": "[Example 325, trans-4-(4-((2-(3,5-dichloropyridin-4-yl)-2-oxoethyl)-((2,2,3,3-tetramethylcyclopropyl)methyl)carbamoyl)-5-(trifluoromethyl)pyrazol-1-yl)-1-methylcyclohexane-1-carboxylic acid]", "values": [{"measurement": "IC50", "value": 10700, "unit": "pM"}]}, {"compound": "N#Cc1ccccc1CN(CC(=O)c1c(Cl)cncc1Cl)C(=O)c1cnn([C@H]2CC[C@H](C(=O)O)CC2)c1C(F)(F)F", "note": "[Example 22, trans-4-(4-((2-cyanobenzyl)(2-(3,5-dichloropyridin-4-yl)-2-oxoethyl)carbamoyl)-5-(trifluoromethyl)-1H-pyrazol-1-yl)cyclohexanecarboxylic acid]", "values": [{"measurement": "IC50", "value": "> 1e+07", "unit": "pM"}]}, {"compound": "O=C(CN(CC1(F)CCCC1)C(=O)c1cnn(C23CCC(C(=O)O)(CC2)CC3)c1C(F)(F)F)c1c(Cl)cncc1Cl", "note": "[Example 299, 4-(4-((2-(3,5-dichloropyridin-4-yl)-2-oxoethyl)-((1-fluorocyclopentyl)methyl)carbamoyl)-5-(trifluoromethyl)pyrazol-1-yl)bicyclo[2.2.2]octane-1-carboxylic acid]", "values": [{"measurement": "IC50", "value": 20900, "unit": "pM"}]}, {"compound": "N#C[C@]1(C(=O)O)CC[C@@H](n2ncc(C(=O)N(CC(=O)c3c(Cl)cncc3Cl)Cc3ccc(F)cc3)c2C(F)(F)F)CC1", "note": "[Example 128, trans-4-(4-((2-(3,5-dichloropyridin-4-yl)-2-oxoethyl)-((4-fluorophenyl)methyl)carbamoyl)-5-(trifluoromethyl)pyrazol-1-yl)-1-cyanocyclohexane-1-carboxylic acid]", "values": [{"measurement": "IC50", "value": "> 1e+07", "unit": "pM"}]}, {"compound": "CC(C)c1c(C(=O)N(CC(=O)c2c(Cl)cncc2Cl)Cc2cc(F)cc(F)c2)cnn1[C@H]1CC[C@H](C(=O)O)CC1", "note": "[Example 162, trans-4-(4-((2-(3,5-dichloropyridin-4-yl)-2-oxoethyl)-((3,5-difluorophenyl)methyl)carbamoyl)-5-propan-2-ylpyrazol-1-yl)cyclohexane-1-carboxylic acid]", "values": [{"measurement": "IC50", "value": "1.02e+06", "unit": "pM"}]}, {"compound": "C#Cc1cccc(Cl)c1C(=O)CN(Cc1cc(F)cc(F)c1)C(=O)c1cnn([C@H]2CC[C@H](C(=O)O)CC2)c1C(F)(F)F", "note": "[Example 68, trans-4-(4-((2-(2-chloro-6-ethynylphenyl)-2-oxoethyl)(3,5-difluorobenzyl)carbamoyl)-5-(trifluoromethyl)-1H-pyrazol-1-yl)cyclohexanecarboxylic acid]", "values": [{"measurement": "IC50", "value": "1.32e+06", "unit": "pM"}]}, {"compound": "CC(C)(C)CN(CC(=O)c1c(F)cncc1Cl)C(=O)c1cnn([C@H]2CC[C@](C)(C(=O)O)CC2)c1C(F)(F)F", "note": "[Example 294, trans-4-(4-((2-(3-chloro-5-fluoropyridin-4-yl)-2-oxoethyl)-(2,2-dimethylpropyl)carbamoyl)-5-(trifluoromethyl)pyrazol-1-yl)-1-methylcyclohexane-1-carboxylic acid]", "values": [{"measurement": "IC50", "value": 49000, "unit": "pM"}]}, {"compound": "COc1cccc(Cl)c1C(=O)CN(CC1CC(C)(C)C1)C(=O)c1cnn([C@H]2CC[C@](C)(C(=O)O)CC2)c1C(F)(F)F", "note": "[Example 252, trans-4-(4-((2-(2-chloro-6-methoxyphenyl)-2-oxoethyl)-((3,3-dimethylcyclobutyl)methyl)carbamoyl)-5-(trifluoromethyl)pyrazol-1-yl)-1-methylcyclohexane-1-carboxylic acid]", "values": [{"measurement": "IC50", "value": 10000, "unit": "pM"}]}, {"compound": "CC(C)CN(CC(=O)c1c(Cl)cncc1Cl)C(=O)c1cnn([C@H]2CC[C@H](C(=O)O)CC2)c1C(F)(F)F", "note": "[Example 26, trans-4-(4-((2-(3,5-dichloropyridin-4-yl)-2-oxoethyl)(isobutyl)carbamoyl)-5-(trifluoromethyl)-1H-pyrazol-1-yl)cyclohexanecarboxylic acid]", "values": [{"measurement": "IC50", "value": 282000, "unit": "pM"}]}, {"compound": "O=C(CN(Cc1ccncc1)C(=O)c1cnn([C@H]2CC[C@H](C(=O)O)CC2)c1C(F)(F)F)c1c(Cl)cncc1Cl", "note": "[Example 76, trans-4-(4-((2-(3,5-dichloropyridin-4-yl)-2-oxoethyl)(pyridin-4-ylmethyl)carbamoyl)-5-(trifluoromethyl)-1H-pyrazol-1-yl)cyclohexanecarboxylic acid]", "values": [{"measurement": "IC50", "value": "1.7e+06", "unit": "pM"}]}, {"compound": "N#C[C@]1(C(=O)O)CC[C@H](n2ncc(C(=O)N(CC(=O)c3c(Cl)cncc3Cl)Cc3ccc(F)cc3)c2C(F)(F)F)CC1", "note": "[Example 129, trans-4-(4-((2-(3,5-dichloropyridin-4-yl)-2-oxoethyl)-((4-fluorophenyl)methyl)carbamoyl)-5-(trifluoromethyl)pyrazol-1-yl)-1-cyanocyclohexane-1-carboxylic acid]", "values": [{"measurement": "IC50", "value": "8.71e+06", "unit": "pM"}]}, {"compound": "O=C(CN(CC1CCCC1)C(=O)c1cnn([C@H]2CC[C@H](C(=O)O)CC2)c1C(F)(F)F)c1c(Cl)cncc1Cl", "note": "[Example 29, trans-4-(4-((cyclopentylmethyl)(2-(3,5-dichloropyridin-4-yl)-2-oxoethyl)carbamoyl)-5-(trifluoromethyl)-1H-pyrazol-1-yl)cyclohexanecarboxylic acid]", "values": [{"measurement": "IC50", "value": 75900, "unit": "pM"}]}, {"compound": "O=C(CN(Cc1ccc(F)cc1)C(=O)c1cnn([C@H]2CC[C@H](C(=O)O)CC2)c1C(F)(F)F)c1c(Cl)cncc1Cl", "note": "[Example 1, trans-4-(4-((2-(3,5-dichloropyridin-4-yl)-2-oxoethyl)(4-fluorobenzyl)carbamoyl)-5-(trifluoromethyl)-1H-pyrazol-1-yl)cyclohexanecarboxylic acid]", "values": [{"measurement": "IC50", "value": 24000, "unit": "pM"}]}, {"compound": "O=C(CN(Cc1cnccn1)C(=O)c1cnn([C@H]2CC[C@H](C(=O)O)CC2)c1C(F)(F)F)c1c(Cl)cncc1Cl", "note": "[Example 48, trans-4-(4-((2-(3,5-dichloropyridin-4-yl)-2-oxoethyl)(pyrazin-2-ylmethyl)carbarnoyl)-5-(trifluoromethyl)-1H-pyrazol-1-yl)cyclohexanecarboxylic acid]", "values": [{"measurement": "IC50", "value": "> 1e+07", "unit": "pM"}]}, {"compound": "C[S+](=O)([O-])[C@H]1CC[C@@H](n2ncc(C(=O)N(CC(=O)c3c(Cl)cncc3Cl)Cc3ccc(F)cc3)c2C(F)(F)F)CC1", "note": "[Example 86, N-(2-(3,5-dichloropyridin-4-yl)-2-oxoethyl)-N-(4-fluorobenzyl)-1-(cis-4-(methylsulfonyl)cyclohexyl)-5-(trifluoromethyl)-1H-pyrazole-4-carboxamide]", "values": [{"measurement": "IC50", "value": 162000, "unit": "pM"}]}, {"compound": "Cc1c(C(=O)N(CC(=O)c2c(Cl)cccc2Cl)[C@H]2C[C@@H]3[C@H](C2)C3(C)C)cnn1[C@H]1CC[C@](C)(C(=O)O)CC1", "note": "[Example 364, trans-4-(4-((2-(2,6-dichlorophenyl)-2-oxoethyl)((1R,3r,5S)-6,6-dimethylbicyclo[3.1.0]hexan-3-yl)carbamoyl)-5-methyl-1H-pyrazol-1-yl)-1-methylcyclohexanecarboxylic acid]", "values": [{"measurement": "IC50", "value": 45700, "unit": "pM"}]}, {"compound": "O=C(CN(CC1CCC1)C(=O)c1cnn([C@H]2CC[C@H](C(=O)O)CC2)c1C(F)(F)F)c1c(Cl)cncc1Cl", "note": "[Example 28, trans-4-(4-((cyclobutylmethyl)(2-(3,5-dichloropyridin-4-yl)-2-oxoethyl)carbamoyl)-5-(trifluoromethyl)-1H-pyrazol-1-yl)cyclohexanecarboxylic acid]", "values": [{"measurement": "IC50", "value": 195000, "unit": "pM"}]}, {"compound": "CC(CN(Cc1ccc(F)cc1)C(=O)c1cnn([C@H]2CC[C@H](C(=O)O)CC2)c1C(F)(F)F)c1c(Cl)cccc1Cl", "note": "(stereo partly drawn) [Example 100, trans-4-(4-(2-(2,6-dichlorophenyl)propyl-((4-fluorophenyl)methyl)carbamoyl)-5-(trifluoromethyl)pyrazol-1-yl)cyclohexane-1-carboxylic acid]", "values": [{"measurement": "IC50", "value": 234000, "unit": "pM"}]}]}
